The subject of data set [1] is mice. The data set is described as follows: Protection from reserpine-induced depression (ptosis) in mice (antidepressant activity). It is filed as in vivo. The note with it: for antidepressant activity (in words): under the conditions of the demonstration; for ED50: Mus musculus. As to the method: Separate groups of mice and the same origin and past history (5 mice per group) were administered 2-((2-fluorophenyl)azo)-1H-imidazole (Example 3) in an aqueous carrier. Different groups were administered the compound by intraperitoneal injection at various dosage rates. Thirty minutes after the administration of the test compound, the mice were administered reserpine at a dosage rate of 2.5 milligrams per kilogram by intraperitoneal injection. Separate groups of similar mice were similarly administered 2.5 milligrams of reserpine per kilogram 30 minutes after administration of various dosages of the known antidepressant. The mice were then observed for 45 minutes for symptoms of reserpine-induced depression.
Protection from reserpine-induced depression is indicated by the absence of the characteristic ptosis.
The results were employed to calculate the dose effective to protect 50 percent of the mice (ED50) by classical, statistical procedures.
The procedure of Example 15 was repeated using oral administration of 2-((2-fluorophenyl)azo)-1H-imidazole (Example 3) instead of intraperitoneal injection.
Using the general procedure outlined above, the ED50 's were calculated for some of the other imidazoles herein disclosed.

Data set [2] deals with mice. The data set is described as follows: Blocking of isolation-induced aggression in mice (antianxiety activity). It is filed as in vivo. The note with it: for ED50: Mus musculus, ip, intraperitoneal, 30 min before pairing, doses 10.0, 21.5, 46.4 mg/kg. As to the method:
Antianxiety agents tend to block isolation-induced aggression in mice. Aggression was established in untrained mice by isolating them in individual cages for a period of four weeks. At the end of that period, the mice were paired for three minutes on three test days within one week to establish the absence or presence of aggression. During pairing, one mouse was always in the home cage, and the other was the intruder. […] On test days, each dose of test drug was administered by intraperitoneal injection to five pairs of mice; five additional pairs received only the vehicle and served as controls. Each drug was tested at three doses 10.0 mg, 21.5 mg, and 46.4 mg per kilogram of body weight. Thirty minutes after injection, the intruder was placed in the home cage of his opponent, and aggression was recorded as absent or present. When aggression was present, the intruder was removed immediately so that dominance was not established. Using the same procedure as employed in Examples 15 and 16, ED50 's were established for each compound.

Data set [3] is described as follows: Acute toxicity, 50 percent lethal dose (LD50). The following applies: mouse, in vivo.
Where [4] appears, read: ip, intraperitoneal, 30 min before reserpine 2.5 mg/kg i.p., observed 45 min, read-out: Intraperitoneal ED50 (dose effective to protect 50 percent of the mice).
Setting [5] is: oral, before reserpine 2.5 mg/kg i.p., read-out: Oral ED50.
Where [6] appears, read: acute, Table II, route not given, read-out: Acute Toxicity LD50.

Like-named read-outs stand apart in the source and are kept apart here. A value given as a limit tells only on which side of the number the result lay.

Turning to `Cc1ccc(N=Nc2ncc[nH]2)cc1` [Example 12], the “antidepressant activity (in words)” value in data set [1] is “essentially inactive as antidepressant agents”. Besides, the 50% effect level in data set [2] (ED50) was put at a dose of 28.7 mg/kg.

`Clc1cccc(N=Nc2ncc[nH]2)c1` [Example 11]: the 50% effective dose (ED50) in data set [1] (setting [4]) was found to be 24 mg/kg; in data set [1] (setting [5]), 32 mg/kg; in data set [2], 24.5 mg/kg. In addition, the LD50 in data set [3] (read-out: Acute Toxicity LD50) amounted to 178 mg/kg.

As to `Clc1ccccc1N=Nc1ncc[nH]1` [Example 1, 2-((2-chlorophenyl)azo)-1H-imidazole], the ED50 in data set [1] (setting [4]) came to 20 mg/kg; in data set [1] (setting [5]), 23 mg/kg. The median lethal dose (LD50) in data set [3] (setting [6]) is greater than 562 mg/kg.

In the case of `N#Cc1ccccc1N=Nc1ncc[nH]1` [Example 9], the 50% effective dose (ED50) in data set [1] (setting [4]) came to 20 mg/kg; in data set [1] (setting [5]), 19 mg/kg; in data set [2], 12.6 mg/kg. For the same molecule, in data set [3] (read-out: Acute Toxicity LD50), the LD50 came to 147 mg/kg.

As to `O=[N+]([O-])c1ccccc1N=Nc1ncc[nH]1` [Example 8, 2-((2-nitrophenyl)azo)-1H-imidazole], the “antidepressant activity (in words)” value in data set [1] was “active as an antidepressant”. The molecule also showed an ED50 in data set [2] of 27.1 mg/kg.

Consider `c1ccc(N=Nc2ncc[nH]2)cc1` [Example 4], for which the 50% effective dose (ED50) in data set [1] (setting [4]) amounted to 20 mg/kg; in data set [1] (setting [5]) it was 24 mg/kg; in data set [2], 27.1 mg/kg. Also, the median lethal dose (LD50) in data set [3] (read-out: Acute Toxicity LD50) was 316 mg/kg.

With `Brc1ccccc1N=Nc1ncc[nH]1` [Example 6], the results for the 50% effective dose (ED50) in data set [1] (setting [4]), in data set [1] (setting [5]) and in data set [2] were 23 mg/kg, 79 mg/kg and 28.7 mg/kg, respectively. Besides, the LD50 in data set [3] (read-out: Acute Toxicity LD50) is greater than 562 mg/kg.

For the molecule `Fc1ccccc1N=Nc1ncc[nH]1` [Example 3, 2-((2-fluorophenyl)azo)-1H-imidazole], the ED50 in data set [1] (ip, read-out: Intraperitoneal ED50 (dose effective to protect 50 percent of the mice)) turned out to be 11 mg/kg; in data set [1] (po, read-out: Oral ED50), 11 mg/kg; in data set [2], 23.7 mg/kg. Moreover, in data set [3] (ip, intraperitoneal LD50 / intraperitoneal ED50 (reserpine test), read-out: therapeutic index LD50/ED50), the selectivity ratio is 13.4. In addition, the median lethal dose (LD50) in data set [3] (ip, intraperitoneal, acute, read-out: intraperitoneal acute 50 percent lethal dose (LD50)) was 147 mg/kg.

Regarding `Cc1ccc(N=Nc2ncc[nH]2)c(Cl)c1` [Example 13], the “antidepressant activity (in words)” value in data set [1] is “essentially inactive as antidepressant agents”. Also, in data set [2], the ED50 came out at 25.5 mg/kg.

For `Cc1cccc(N=Nc2ncc[nH]2)c1` [Example 10, 2-((3-methylphenyl)azo)-1H-imidazole], the median effective dose (ED50) in data set [1] (setting [4]) came out at 27 mg/kg; in data set [2], 5.84 mg/kg. In data set [3] (setting [6]), the 50% lethal dose (LD50) came out at 316 mg/kg.

`Ic1ccccc1N=Nc1ncc[nH]1` [Example 7]: the 50% effective dose (ED50) in data set [1] (setting [5]) was 75 mg/kg; in data set [2], 31.6 mg/kg. Moreover, the median lethal dose (LD50) in data set [3] (read-out: Acute Toxicity LD50) was greater than 562 mg/kg.

As for `Cc1ccccc1N=Nc1ncc[nH]1` [Example 5], the ED50 in data set [1] (setting [4]) was determined as 42 mg/kg; in data set [1] (setting [5]) it was 43 mg/kg. Also, the “antianxiety activity (in words)” value in data set [2] (isolation-induced aggression in mice) was “very weak activity”.

Consider `Clc1ccc(N=Nc2ncc[nH]2)cc1` [Example 14, 2-((4-chlorophenyl)azo)-1H-imidazole], for which, in data set [1], the “antidepressant activity (in words)” value was “essentially inactive as antidepressant agents”. Moreover, the ED50 in data set [2] is 4.3 mg/kg.

Turning to `Cl.Clc1ccccc1N=Nc1ncc[nH]1` [Example 2, 2-((2-chlorophenyl)azo)-1H-imidazole hydrochloride], the median effective dose (ED50) came to 17 mg/kg in data set [1] (setting [4]), 32 mg/kg in data set [1] (setting [5]) and 13.3 mg/kg in data set [2]. The 50% lethal dose (LD50) in data set [3] (setting [6]) was 316 mg/kg.

As a reminder, the ED50 is the dose at which the effect has come halfway, by size or by number of responders. What is called LD50 is the dose at which mortality reaches 50%.

The values above are taken from US4079130A, “Antidepressant phenylazoimidazoles” (The Dow Chemical Company, priority 1977, dated 1978).
